Data published in PubChem BioAssay AID2060618 (Molecular Pharmacology Branch, DTP, NCI, 2025).
Where “and” joins values, the source holds several entries; their conditions need not be identical. Equal values may be shown once. One block for each molecule: values may come before it.

Test system: 454973-116-R2-J3-PDC spheroids, percent test/control viability
Experiment: Anticancer human tumor 454973-116-R2-J3-PDC patient-derived pancreatic carcinoma cell line growth inhibition [CLK]
Conditions: spheroids with HUVEC and MSC; for viability, T/C: stronger effect = lower value
In short: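 Multi-cell-type spheroids combined patient-derived tumor cells with HUVEC endothelial cells and human mesenchymal stem cells. Paired agents were dosed in half-log steps down from about clinical Cmax, or from 10 microM where Cmax was unknown.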

[1] = curve of first compound, second compound 0.0316 µM
[2] = curve of first compound, second compound 0.1 µM
[3] = curve of first compound, second compound 0.316 µM
[4] = curve of first compound, second compound 1 µM
[5] = curve of first compound, second compound 3.16 µM
[6] = curve of first compound, second compound 10 µM
[7] = second compound 0.0316 µM, first compound 0.0316 µM
[8] = second compound 0.0316 µM, first compound 0.1 µM
[9] = second compound 0.0316 µM, first compound 0.316 µM
[10] = second compound 0.0316 µM, first compound 1 µM
[11] = second compound 0.1 µM, first compound 0.0316 µM
[12] = second compound 0.1 µM, first compound 0.1 µM
[13] = second compound 0.1 µM, first compound 0.316 µM
[14] = second compound 0.1 µM, first compound 1 µM
[15] = second compound 0.316 µM, first compound 0.0316 µM
[16] = second compound 0.316 µM, first compound 0.1 µM
[17] = second compound 0.316 µM, first compound 0.316 µM
[18] = second compound 0.316 µM, first compound 1 µM
[19] = second compound 1 µM, first compound 0.0316 µM
[20] = second compound 1 µM, first compound 0.1 µM
[21] = second compound 1 µM, first compound 0.316 µM
[22] = second compound 1 µM, first compound 1 µM
[23] = second compound 3.16 µM, first compound 0.0316 µM
[24] = second compound 3.16 µM, first compound 0.1 µM
[25] = second compound 3.16 µM, first compound 0.316 µM
[26] = second compound 3.16 µM, first compound 1 µM
[27] = second compound 10 µM, first compound 0.0316 µM
[28] = second compound 10 µM, first compound 0.1 µM
[29] = second compound 10 µM, first compound 0.316 µM
[30] = second compound 10 µM, first compound 1 µM
[31] = second compound 0.0316 µM, first compound 3.16 µM
[32] = second compound 0.0316 µM, first compound 10 µM
[33] = second compound 0.1 µM, first compound 3.16 µM
[34] = second compound 0.1 µM, first compound 10 µM
[35] = second compound 0.316 µM, first compound 3.16 µM
[36] = second compound 0.316 µM, first compound 10 µM
[37] = second compound 1 µM, first compound 3.16 µM
[38] = second compound 1 µM, first compound 10 µM
[39] = second compound 3.16 µM, first compound 3.16 µM
[40] = second compound 3.16 µM, first compound 10 µM
[41] = second compound 10 µM, first compound 3.16 µM
[42] = second compound 10 µM, first compound 10 µM
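Further: spheroids exposed to compounds for 7 days before readout.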

IC50 (curve of compound): 8300 nM and 6870 nM
SMILES: CCCS(=O)(=O)Nc1ccc(F)c(C(=O)c2c[nH]c3ncc(-c4ccc(Cl)cc4)cc23)c1F
viability, T/C (compound 0.0316 µM): 99.6% and 110% | viability, T/C (compound 0.1 µM): 103% and 101% | viability, T/C (compound 0.316 µM): 112% and 105% | viability, T/C (compound 1 µM): 102% and 103% | viability, T/C (compound 3.16 µM): 108% and 101% | viability, T/C (compound 10 µM): 39.4% and 25.2%

IC50 [1]: 6830 nM | IC50 [2]: 6950 nM | IC50 [3]: < 31.6 nM | IC50 [4]: < 31.6 nM | IC50 [5]: < 31.6 nM | IC50 [6]: < 31.6 nM
SMILES: CC1(C)CCC(CN2CCN(c3ccc(C(=O)NS(=O)(=O)c4ccc(NCC5CCOCC5)c([N+](=O)[O-])c4)c(Oc4cnc5[nH]ccc5c4)c3)CC2)=C(c2ccc(Cl)cc2)C1 + CNC(=O)c1ccc(Nc2nc(OC3CCCC3)c3c(-c4ccc5nc(C)oc5c4)c[nH]c3n2)c(OC)c1
viability, T/C [7]: 95.9% | viability, T/C [8]: 94.7% | viability, T/C [9]: 103% | viability, T/C [10]: 102% | viability, T/C [31]: 112% | viability, T/C [32]: 24.5% | viability, T/C [11]: 96.3% | viability, T/C [12]: 98.8% | viability, T/C [13]: 93.9% | viability, T/C [14]: 94% | viability, T/C [33]: 102% | viability, T/C [34]: 28.1% | viability, T/C [15]: 37.5% | viability, T/C [16]: 38.5% | viability, T/C [17]: 37.6% | viability, T/C [18]: 40.3% | viability, T/C [35]: 32.5% | viability, T/C [36]: 21.1% | viability, T/C [19]: 27.2% | viability, T/C [20]: 26.2% | viability, T/C [21]: 28.3% | viability, T/C [22]: 28.4% | viability, T/C [37]: 28.3% | viability, T/C [38]: 23.4% | viability, T/C [23]: 29.2% | viability, T/C [24]: 25.2% | viability, T/C [25]: 26.9% | viability, T/C [26]: 23.9% | viability, T/C [39]: 27.6% | viability, T/C [40]: 22.3% | viability, T/C [27]: 26.6% | viability, T/C [28]: 26.6% | viability, T/C [29]: 24.4% | viability, T/C [30]: 21.8% | viability, T/C [41]: 26.1% | viability, T/C [42]: 21.6%

IC50 [1]: > 10000 nM | IC50 [2]: > 10000 nM | IC50 [3]: < 31.6 nM | IC50 [4]: < 31.6 nM | IC50 [5]: < 31.6 nM | IC50 [6]: < 31.6 nM
SMILES: O=C(c1cc(Cc2n[nH]c(=O)c3ccccc23)ccc1F)N1CCN(C(=O)C2CC2)CC1 + CNC(=O)c1ccc(Nc2nc(OC3CCCC3)c3c(-c4ccc5nc(C)oc5c4)c[nH]c3n2)c(OC)c1
viability, T/C [7]: 94.7% | viability, T/C [8]: 107% | viability, T/C [9]: 98.4% | viability, T/C [10]: 104% | viability, T/C [31]: 94.6% | viability, T/C [32]: 75.9% | viability, T/C [11]: 101% | viability, T/C [12]: 105% | viability, T/C [13]: 95.8% | viability, T/C [14]: 101% | viability, T/C [33]: 92.8% | viability, T/C [34]: 77.4% | viability, T/C [15]: 39.6% | viability, T/C [16]: 52.1% | viability, T/C [17]: 40.9% | viability, T/C [18]: 51.4% | viability, T/C [35]: 47.8% | viability, T/C [36]: 40.3% | viability, T/C [19]: 36.5% | viability, T/C [20]: 33.9% | viability, T/C [21]: 31.4% | viability, T/C [22]: 33.3% | viability, T/C [37]: 29.9% | viability, T/C [38]: 24.3% | viability, T/C [23]: 32.3% | viability, T/C [24]: 33.2% | viability, T/C [25]: 35.1% | viability, T/C [26]: 32% | viability, T/C [39]: 29.4% | viability, T/C [40]: 22.5% | viability, T/C [27]: 26.3% | viability, T/C [28]: 33.6% | viability, T/C [29]: 30.4% | viability, T/C [30]: 29.4% | viability, T/C [41]: 28.2% | viability, T/C [42]: 23.8%

Second part, the molecule before the results:

SMILES: CCc1c2c(nc3ccc(O)cc13)-c1cc3c(c(=O)n1C2)COC(=O)[C@]3(O)CC + CN1CCN(c2cc(C(=O)Nc3cc4cc(-c5cnn(C)c5)ccc4cn3)ccn2)CC1
IC50 [1]: < 3.16 nM | IC50 [2]: < 3.16 nM | IC50 [3]: < 3.16 nM | IC50 [4]: < 3.16 nM | IC50 [5]: < 3.16 nM | IC50 [6]: < 3.16 nM | viability, T/C (second compound 0.0316 µM, first compound 0.00316 µM): 26.9% | viability, T/C (second compound 0.0316 µM, first compound 0.01 µM): 17.1% | viability, T/C [7]: 12.6% | viability, T/C [8]: 6.38% | viability, T/C [9]: 3.17% | viability, T/C [10]: 0.71% | viability, T/C (second compound 0.1 µM, first compound 0.00316 µM): 21.8% | viability, T/C (second compound 0.1 µM, first compound 0.01 µM): 21.1% | viability, T/C [11]: 9.73% | viability, T/C [12]: 3.23% | viability, T/C [13]: 1.75% | viability, T/C [14]: 0.31% | viability, T/C (second compound 0.316 µM, first compound 0.00316 µM): 2.15% | viability, T/C (second compound 0.316 µM, first compound 0.01 µM): 3.91% | viability, T/C [15]: 2.2% | viability, T/C [16]: 0.98% | viability, T/C [17]: 0.1% | viability, T/C [18]: 0.1% | viability, T/C (second compound 1 µM, first compound 0.00316 µM): 0.08% | viability, T/C (second compound 1 µM, first compound 0.01 µM): 0.1% | viability, T/C [19]: 0.1% | viability, T/C [20]: 0.05% | viability, T/C [21]: 0.07% | viability, T/C [22]: 0.09% | viability, T/C (second compound 3.16 µM, first compound 0.00316 µM): 0.1% | viability, T/C (second compound 3.16 µM, first compound 0.01 µM): 0.13% | viability, T/C [23]: 0.14% | viability, T/C [24]: 0.11% | viability, T/C [25]: 0.16% | viability, T/C [26]: 0.15% | viability, T/C (second compound 10 µM, first compound 0.00316 µM): 0.07% | viability, T/C (second compound 10 µM, first compound 0.01 µM): 0.12% | viability, T/C [27]: 0.17% | viability, T/C [28]: 0.18% | viability, T/C [29]: 0.21% | viability, T/C [30]: 0.18%

SMILES: COc1ccc([C@@H](O)c2cc(-c3ncnc4cc(N5CCOCC5)ccc34)c(F)cc2Cl)nn1 + CNC(=O)c1ccc(Nc2nc(OC3CCCC3)c3c(-c4ccc5nc(C)oc5c4)c[nH]c3n2)c(OC)c1
IC50 [1]: > 10000 nM | IC50 [2]: > 10000 nM | IC50 [3]: < 31.6 nM | IC50 [4]: < 31.6 nM | IC50 [5]: < 31.6 nM | IC50 [6]: < 31.6 nM | viability, T/C [7]: 109% | viability, T/C [8]: 95.5% | viability, T/C [9]: 105% | viability, T/C [10]: 93% | viability, T/C [31]: 80.3% | viability, T/C [32]: 51.1% | viability, T/C [11]: 98.9% | viability, T/C [12]: 110% | viability, T/C [13]: 94.5% | viability, T/C [14]: 97.2% | viability, T/C [33]: 72.9% | viability, T/C [34]: 54.7% | viability, T/C [15]: 42.2% | viability, T/C [16]: 41.4% | viability, T/C [17]: 49.1% | viability, T/C [18]: 43.2% | viability, T/C [35]: 45.5% | viability, T/C [36]: 31.9% | viability, T/C [19]: 27.8% | viability, T/C [20]: 28% | viability, T/C [21]: 29.1% | viability, T/C [22]: 24.9% | viability, T/C [37]: 25.9% | viability, T/C [38]: 21.4% | viability, T/C [23]: 26.8% | viability, T/C [24]: 30.3% | viability, T/C [25]: 26.3% | viability, T/C [26]: 25.9% | viability, T/C [39]: 23.6% | viability, T/C [40]: 18.4% | viability, T/C [27]: 28.2% | viability, T/C [28]: 26.5% | viability, T/C [29]: 23.1% | viability, T/C [30]: 24.4% | viability, T/C [41]: 27.2% | viability, T/C [42]: 17.7%
